These results are taken from paper PMC5594493, “Antiproliferative factor (APF) binds specifically to sites within the cytoskeleton-associated protein 4 (CKAP4) extracellular domain” (BMC Biochemistry, 2017).

“And” between values parts separate entries of the source, which are not always exact repeats. Equal values may be shown once.

The subject of test [1] is T24 bladder carcinoma cells. In words: XTT cell proliferation assay, T24. The class given is cell-based. To be noted: 20 nM, 96 h, serum-free, relative to vehicle/control, at least four independent times, P < 0.0001 vs control, as-APF vs APF P = 0.0103 (unpaired t-test, Welch's correction). The protocol:
T24 bladder carcinoma cells (ATCC #HTB-4; Manassas, VA) were maintained in HyClone-formulated McCoy’s 5A modified media (Catalog #SH30525.01) supplemented with 10% fetal bovine serum (FBS) (Atlanta Biologicals, Flowery Branch, GA), 100 U/ml penicillin, and 100 μg/ml streptomycin (Invitrogen, Carlsbad, CA). Cell proliferation was measured using the XTT Cell Proliferation Assay Kit (ATCC). T24 cells were seeded at 1 × 10^3–4 × 10^3 per well in a 48-well plate in 300 μl/well McCoy’s supplemented medium. Cells were serum-starved for 24 h and then treated with either 20 nM APF, 20 nM as-APF, or 25 μM H2O2 (antiproliferative control) diluted in serum-free McCoy’s medium. Cells were incubated at 37 °C in a 5% CO2 atmosphere for an additional 96 h, after which 150 μl of activated–XTT solution was added to each well followed by an additional 3 h incubation. Absorbance was then measured at 475 nm and 660 nm using an M5 microplate reader (Molecular Devices, Sunnyvale, CA), and the specific absorbance was calculated. P values were assigned using unpaired t-test with Welch’s correction. The assay was repeated four independent times.

In another test the test system is cell proliferation. To be noted: cited from earlier work. The protocol: Cells were treated with 20 nM APF or as-APF for 96 h and the rate of cell growth was measured using the XTT proliferation assay. […] The rate of growth of T24 cells was reduced by 47% with APF and by 60% with as-APF, relative to cells treated with vehicle alone; moreover, the difference in the antiproliferative effect of as-APF and APF was de ...

In the next test the test system is full-length CKAP4. Briefly: SPR binding to full-length His-tagged CKAP4. The protocol: FL-CKAP4 was expressed in HEK 293 T cells (ATCC) and similarly purified by IMAC. Briefly, HEK 293 T cells were transfected with pcDNA3.1/V5-His TOPO vector (Life Technologies) expressing FL-CKAP4 using X-tremeGENE 9 transfection reagent (Roche) according to manufacturer’s protocol. Cells were harvested after transient expression (24 h) and held at −80 °C before proceeding to purification. Cell lysate was prepared in PBS buffer containing 10 mM CHAPS, 20 mM imidazole and EDTA-free protease inhibitor cocktail and sonicated before proceeding to protein purification, as described above. All purified proteins were quantitated by the BCA method according to the manufacturer’s protocol using BSA as the standard (ThermoScientific). Because of the varied amino acid compositions of the purified recombinant proteins, the UV (λ280nm) absorbance method was also used for reference.
All SPR experiments were performed on a Biacore X-100 instrument (GE Healthcare) with the chip surface at 25 °C using PBS containing 0.01% Tween-20 as running buffer. CKAP4 recombinant proteins were immobilized individually either by Ni^2+/nitrilotriacetic acid (NTA) chelation on Sensor Chip NTA or by amine-coupling on Sensor Chip CM5, on the Fc2 channel. […] The data were analyzed using Biacore Evaluation software V2.0. […]
Background: In SPR one partner is held on a chip, and binding of the other changes the refractive index at the surface.

Consider “Neu5Acα2 − 3Galβ1 − 3GalNAcα-O-TVPAAVVVA [APF]”, for which the “reduction of T24 cell proliferation” value in test [1] is 47% and 47.08 ± 12.88%. Further, in the test with cell proliferation (ref [2]), the “relative antiproliferative effect of as-APF and APF” value is “more or less equipotent”. For the same substance, the IC50 in the test with cell proliferation (ref [3], read-out: IC50, inhibition of proliferation) is approximately 1 nM. Moreover, the binding result with full-length CKAP4 (CKAP4FL immobilized via His-tag on NTA chip) is given as “did not generate sufficient binding”. Also, in the test on full-length CKAP4 (full-length His-tagged CKAP4 purified from mammalian cells), the binding activity entry is listed as “did not detect appreciable binding activity”.
